Assay results taken from patent US8007782B2, “Combination bacteriolytic therapy for the treatment of tumors” (priority 2003, dated 2011).

Columns and labels:
[1] = Weight loss after COBALT; type: in vivo, nude mice; conditions: drug dose 1.7 mg/kg; maximum average weight loss relative to weight one day prior to treatment; HCT116 xenografts
[2] = system: tumor blood flow in HCT116 xenografts; test: Assessment of blood perfusion (Hoechst 33342) in HCT116 xenografts; type: in vivo, mice; conditions: HTI-286 1.7 mg/kg or docetaxel 50 mg/kg iv, 3 and 24 hr after treatment
Experimental: Three or 24 hours after treatment, mice were intravenously injected with Hoechst 33342 (40 mg/kg) and euthanized two minutes later. Tumors were cryosectioned and viewed by fluorescence microscopy after counter-staining with acridine orange (AO). Endothelial cells are stained blue when they have taken up the Hoechst 33342 dye. Adjacent sections were stained with MECA-32 monoclonal antibody, a vascular endothelium-specific marker. Arrows point towards normal blood vessels unaffected by HTI-286 treatment in overlying skin.
Mice bearing HCT116 xenografts of 300 to 500 mm3 were injected intravenously with anti-microtubule agents. At various times thereafter, they were intravenously injected with Hoechst 33342 (40 mg/kg), then euthanized two minutes later by CO2 narcosis. Tumors were fixed in Tissue-Tek OTC compound (Sakura Finetek, Torrance, Calif.) and stored at −80° C. Frozen sections 10 microns in thickness were prepared with a Leica Microsystems cryostat and counterstained with acridine orange, 7.5 ug/ml, in PBS for 5 minutes. […] At least three sections of each of three tumors, representing middle and distal parts of the tumor, were examined under fluorescence microscopy for each agent tested, and representative results are illustrated in the figures. […]

[3] = system: HCT116 human colorectal cancer cells; test: Tumorigenicity assay, HCT116 xenografts in nude mice; type: in vivo; conditions: for Effect with C. novyi-NT / Effect alone: nude mice; for Effect alone: agent alone
[4] = system: HCT116, HuCC-T1, HT-29, SW480, B16 and DLD-1 tumors; test: Low dose HTI-286 and L-NNA on various xenografts (FIG. 10); type: in vivo, mice; conditions: HTI-286 1 mg/kg without L-NNA; L-NNA 10 mg/kg without HTI-286
Excerpt: FIG. 10A-10F Quantification of the effects of C. novyi-NT plus low doses of HTI-286 and L-NNA on various xenografts (HCT116, HuCC-T1, HT-29, SW480, B16, and DLD-1, respectively).
[…] […] The p-values are based on comparisons between L-NNA+HTI-286 and L-NNA+HTI-286+C. novyi-NT spores. The p-value is indicated only when the result was statistically significant.
All animal protocols were designed in accordance with the Guide for the Care and Use of Laboratory Animals (NIH Publication 86-23) and were approved by the Johns Hopkins University Institutional Animal Care and Use Committee. Six to eight week old mice were implanted subcutaneously on one flank with 3 to 6 million cancer cells. Establishment of tumors of 150 to 500 mm3 took 8 to 21 days, depending on the cell type. C. novyi-NT spores (300×106) and anti-microtubule agents were generally administered by a single intravenous injection through the tail vein in a total volume of 300 to 500 ul phosphate-buffered saline (PBS). Quantitative assessment of tumor growth was performed by measuring subcutaneous tumor grafts (major and minor axis) using electronic calipers. Tumor volume was calculated using the equation: length×width2×0.5. Progression free survival was defined as the length of time following treatment before any increase in tumor volume was observed. Mice were considered “cured” if no tumor was evident three months after treatment. […]

[5] = Mortality following COBALT; type: in vivo, nude mice; conditions: deaths within one week, pooled xenograft models

In the case of CN[C@H](C(=O)N[C@H](C(=O)N(C)[C@H](/C=C(\C)C(=O)O)C(C)C)C(C)(C)C)C(C)(C)c1ccccc1 [HTI-286, N,β,β-trimethyl-L-phenylalanyl-N^1-[(1S,2E)-3-carboxy-1-isopropylbut-2-enyl]-N^1,3-dimethyl-L-valinamide], the “Weight Loss (%)” value [1] is reported as 11.4%, the “blood flow to the tumors (Hoechst 33342 labelling)” value [2] is reported as “almost completely inhibited” and the “Effect with C. novyi-NT” value ([3]; 0.5 mg/kg × 1 (iv) with 3×108 C. novyi-NT spores iv) is reported as “+”. For the same molecule, the “Effect with C. novyi-NT” value ([3]; 1.0 mg/kg × 1 (iv) with 3×108 C. novyi-NT spores iv) was “+”, the “Effect with C. novyi-NT” value ([3]; 1.5 mg/kg × 1 (iv) with 3×108 C. novyi-NT spores iv) was “++ (10% to 50% shrinkage in tumor volume relative to pre-treatment size)” and the “Effect with C. novyi-NT” value ([3]; 1.7 mg/kg × 1 (iv) with 3×108 C. novyi-NT spores iv) was “++++ (>20% cures)”. For the same molecule, the “Effect with C. novyi-NT” value ([3]; 1.9 mg/kg × 1 (iv) with 3×108 C. novyi-NT spores iv) was “++++ (>20% cures)”, the “Effect with C. novyi-NT” value ([3]; 2 (2.0) mg/kg × 1 (iv) with 3×108 C. novyi-NT spores iv) was “++++ (>20% cures)” and the Effect alone ([3]; 0.5 mg/kg × 1 (iv)) was 0. The Effect alone ([3]; 1.0 mg/kg × 1 (iv)) was 0, the Effect alone ([3]; 1.5 mg/kg × 1 (iv)) was “+” and the Effect alone ([3]; 1.7 mg/kg × 1 (iv)) was “+”. The Effect alone ([3]; 1.9 mg/kg × 1 (iv)) was “++ (10% to 50% shrinkage in tumor volume relative to pre-treatment size)”, the Effect alone ([3]; 2 (2.0) mg/kg × 1 (iv)) was “++ (10% to 50% shrinkage in tumor volume relative to pre-treatment size)” and the hemorrhagic necrosis ([3]; single treatment) was “modest amount of hemorrhagic necrosis”. The “effects on tumor growth when administered without the other agent” value [4] was “no significant effects on tumor growth”, the “# dead (treatment-related deaths)” value ([5]; drug dose 1.7 mg/kg) was 3 and the “dead (%)” value ([5]; drug dose 1.7 mg/kg) was 2.9%. For the same molecule, the “# dead (treatment-related deaths)” value ([5]; drug dose 1.9 mg/kg) was 3, the “dead (%)” value ([5]; drug dose 1.9 mg/kg) was 5.4% and the “# dead (treatment-related deaths)” value ([5]; drug dose 2.0 mg/kg) was 5. For the same molecule, the “dead (%)” value ([5]; drug dose 2.0 mg/kg) was 10.6%.
